According to ChEMBL document CHEMBL3352542, “Synthesis, biological evaluation and molecular modeling study of 2-(1,3,4-thiadiazolyl-thio and 4-methyl-thiazolyl-thio)-quinazolin-4-ones as a new class of DHFR inhibitors” (Bioorg Med Chem Lett, 2014):
Active and inactive are the calls of the source.

What was measured:
[1] = biological target: T1, Dihydrofolate reductase (Bos taurus, UniProt P00376); assay: Inhibition of bovine liver DHFR
T1 sequence (P00376 whole entry): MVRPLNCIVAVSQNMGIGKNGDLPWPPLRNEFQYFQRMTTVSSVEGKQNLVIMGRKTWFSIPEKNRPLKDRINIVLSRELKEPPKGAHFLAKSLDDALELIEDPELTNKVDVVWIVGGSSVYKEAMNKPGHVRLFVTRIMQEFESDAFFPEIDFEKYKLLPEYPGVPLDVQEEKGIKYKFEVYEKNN

[2] = test system: Staphylococcus aureus; assay: Antimicrobial activity against Staphylococcus aureus assessed as inhibition zone at 200 ug/disk after 24 hrs by disc-diffusion method; type: functional; settings: read-out: IZ
[3] = test system: Bacillus subtilis; assay: Antimicrobial activity against Bacillus subtilis assessed as inhibition zone at 200 ug/disk after 24 hrs by disc-diffusion method; type: functional; settings: read-out: IZ
[4] = test system: Escherichia coli; assay: Antimicrobial activity against Escherichia coli assessed as inhibition zone at 200 ug/disk after 24 hrs by disc-diffusion method; type: functional; settings: read-out: IZ
[5] = test system: Pseudomonas aeruginosa; assay: Antimicrobial activity against Pseudomonas aeruginosa assessed as inhibition zone at 200 ug/disk after 24 hrs by disc-diffusion method; type: functional; settings: read-out: IZ
[6] = test system: Candida albicans; assay: Antimicrobial activity against Candida albicans assessed as inhibition zone at 200 ug/disk after 24 hrs by disc-diffusion method; type: functional; settings: read-out: IZ
[7] = test system: Staphylococcus aureus; assay: Antimicrobial activity against Staphylococcus aureus assessed as inhibition of visible growth after 24 hrs by disc-diffusion method; type: functional, organism-based
[8] = test system: Bacillus subtilis; assay: Antimicrobial activity against Bacillus subtilis assessed as inhibition of visible growth after 24 hrs by disc-diffusion method; type: functional, organism-based
[9] = test system: CCRF-CEM; assay: Growth inhibition of human CCRF-CEM cells at 10 uM after 48 hrs; type: functional
[10] = test system: HL-60(TB); assay: Growth inhibition of human HL-60(TB) cells at 10 uM after 48 hrs; type: functional
[11] = test system: K562; assay: Growth inhibition of human K562 cells at 10 uM after 48 hrs; type: functional
[12] = test system: MOLT-4; assay: (§1) Growth inhibition of human MOLT4 cells at 10 uM after 48 hrs; type: functional
[13] = test system: RPMI-8226; assay: Growth inhibition of human RPMI8226 cells at 10 uM after 48 hrs; type: functional
[14] = test system: SR; assay: Growth inhibition of human SR cells at 10 uM after 48 hrs; type: functional
[15] = test system: A549; assay: Growth inhibition of human A549 cells at 10 uM after 48 hrs; type: functional
[16] = test system: HOP-92; assay: (§2) Growth inhibition of human HOP92 cells at 10 uM after 48 hrs; type: functional
[17] = test system: NCI-H226; assay: Growth inhibition of human NCI-H226 cells at 10 uM after 48 hrs; type: functional
[18] = test system: NCI-H23; assay: Growth inhibition of human NCI-H23 cells at 10 uM after 48 hrs; type: functional
[19] = test system: NCI-H460; assay: Growth inhibition of human NCI-H460 cells at 10 uM after 48 hrs; type: functional
[20] = test system: NCI-H522; assay: Growth inhibition of human NCI-H522 cells at 10 uM after 48 hrs; type: functional
[21] = test system: COLO 205; assay: Growth inhibition of human COLO205 cells at 10 uM after 48 hrs; type: functional
[22] = test system: HCC 2998; assay: Growth inhibition of human HCC2998 cells at 10 uM after 48 hrs; type: functional
[23] = test system: HCT-116; assay: Growth inhibition of human HCT116 cells at 10 uM after 48 hrs; type: functional
[24] = test system: HCT-15; assay: Growth inhibition of human HCT15 cells at 10 uM after 48 hrs; type: functional
[25] = test system: HT-29; assay: Growth inhibition of human HT-29 cells at 10 uM after 48 hrs; type: functional
[26] = test system: KM12; assay: Growth inhibition of human KM12 cells at 10 uM after 48 hrs; type: functional
[27] = test system: SW-620; assay: Growth inhibition of human SW620 cells at 10 uM after 48 hrs; type: functional
[28] = test system: SF-268; assay: Growth inhibition of human SF268 cells at 10 uM after 48 hrs; type: functional
[29] = test system: SF-295; assay: (§3) Growth inhibition of human SF295 cells at 10 uM after 48 hrs; type: functional
[30] = test system: SF-539; assay: Growth inhibition of human SF539 cells at 10 uM after 48 hrs; type: functional
[31] = test system: SNB-19; assay: Growth inhibition of human SNB19 cells at 10 uM after 48 hrs; type: functional
[32] = test system: SNB-75; assay: Growth inhibition of human SNB75 cells at 10 uM after 48 hrs; type: functional
[33] = test system: U-251; assay: Growth inhibition of human U251 cells at 10 uM after 48 hrs; type: functional
[34] = test system: LOX IMVI; assay: Growth inhibition of human LOXIMVI cells at 10 uM after 48 hrs; type: functional
[35] = test system: Malme-3M; assay: Growth inhibition of human MALME-3M cells at 10 uM after 48 hrs; type: functional
[36] = test system: M14; assay: Growth inhibition of human M14 cells at 10 uM after 48 hrs; type: functional
[37] = test system: MDA-MB-435; assay: Growth inhibition of human MDA-MB-435 cells at 10 uM after 48 hrs; type: functional
[38] = test system: SK-MEL-5; assay: Growth inhibition of human SK-MEL-5 cells at 10 uM after 48 hrs; type: functional
[39] = test system: UACC-257; assay: Growth inhibition of human UACC257 cells at 10 uM after 48 hrs; type: functional
[40] = test system: UACC-62; assay: Growth inhibition of human UACC62 cells at 10 uM after 48 hrs; type: functional
[41] = test system: OVCAR-3; assay: Growth inhibition of human OVCAR3 cells at 10 uM after 48 hrs; type: functional
[42] = test system: OVCAR-4; assay: Growth inhibition of human OVCAR4 cells at 10 uM after 48 hrs; type: functional
[43] = test system: OVCAR-5; assay: Growth inhibition of human OVCAR5 cells at 10 uM after 48 hrs; type: functional
[44] = test system: OVCAR-8; assay: Growth inhibition of human OVCAR8 cells at 10 uM after 48 hrs; type: functional
[45] = test system: NCI/ADR-RES; assay: Growth inhibition of human NCI-ADR-RES cells at 10 uM after 48 hrs; type: functional
[46] = test system: 786-0; assay: Growth inhibition of human 786-0 cells at 10 uM after 48 hrs; type: functional
[47] = test system: A498; assay: Growth inhibition of human A498 cells at 10 uM after 48 hrs; type: functional
[48] = test system: ACHN; assay: Growth inhibition of human ACHN cells at 10 uM after 48 hrs; type: functional
[49] = test system: CAKI-1; assay: Growth inhibition of human CAKI-1 cells at 10 uM after 48 hrs; type: functional
[50] = test system: RXF 393; assay: Growth inhibition of human RXF393 cells at 10 uM after 48 hrs; type: functional
[51] = test system: SN12C; assay: Growth inhibition of human SN12C cells at 10 uM after 48 hrs; type: functional
[52] = test system: TK-10; assay: Growth inhibition of human TK10 cells at 10 uM after 48 hrs; type: functional
[53] = test system: UO-31; assay: (§4) Growth inhibition of human UO31 cells at 10 uM after 48 hrs; type: functional
[54] = test system: PC-3; assay: Growth inhibition of human PC3 cells at 10 uM after 48 hrs; type: functional
[55] = test system: MCF7; assay: Growth inhibition of human MCF7 cells at 10 uM after 48 hrs; type: functional
[56] = test system: MDA-MB-231; assay: Growth inhibition of human MDA-MB-231 cells at 10 uM after 48 hrs; type: functional
[57] = test system: Hs-578T; assay: Growth inhibition of human Hs 578T cells at 10 uM after 48 hrs; type: functional
[58] = test system: BT-549; assay: Growth inhibition of human BT549 cells at 10 uM after 48 hrs; type: functional
[59] = test system: T47D; assay: Growth inhibition of human T47D cells at 10 uM after 48 hrs; type: functional
[60] = test system: MDA-MB-468; assay: Growth inhibition of human MDA-MB-468 cells at 10 uM after 48 hrs; type: functional
[61] = as §1; type: functional; settings: MOLT-4, 48 h, read-out: GI
[62] = as §2; type: functional; settings: HOP-92, 48 h, read-out: GI
[63] = as §3; type: functional; settings: SF-295, 48 h, read-out: GI
[64] = as §4; type: functional; settings: UO-31, 48 h, read-out: GI

Cc1ccc(-n2c(Sc3sc(N)nc3C)nc3ccc(Cl)cc3c2=O)cc1
18 mm: zone of inhibition at 200 µg/disc [2]
16 mm: zone of inhibition at 200 µg/disc [3]
8 mm: zone of inhibition at 200 µg/disc [4] | zone of inhibition at 200 µg/disc [5] | zone of inhibition at 200 µg/disc [6]
active: Activity [7] | Activity [8]
inactive: growth inhibition (GI) [9] | growth inhibition (GI) [10] | growth inhibition (GI) [11] | growth inhibition (GI) [12] | growth inhibition (GI) [13] | growth inhibition (GI) [14] | growth inhibition (GI) [15] | growth inhibition (GI) [16] | growth inhibition (GI) [17] | growth inhibition (GI) [18] | growth inhibition (GI) [19] | growth inhibition (GI) [20] | growth inhibition (GI) [21] | growth inhibition (GI) [22] | growth inhibition (GI) [23] | growth inhibition (GI) [24] | growth inhibition (GI) [25] | growth inhibition (GI) [26] | growth inhibition (GI) [27] | growth inhibition (GI) [28] | growth inhibition (GI) [29] | growth inhibition (GI) [30] | growth inhibition (GI) [31] | growth inhibition (GI) [32] | growth inhibition (GI) [33] | growth inhibition (GI) [34] | growth inhibition (GI) [35] | growth inhibition (GI) [36] | growth inhibition (GI) [37] | growth inhibition (GI) [38] | growth inhibition (GI) [39] | growth inhibition (GI) [40] | growth inhibition (GI) [41] | growth inhibition (GI) [42] | growth inhibition (GI) [43] | growth inhibition (GI) [44] | growth inhibition (GI) [45] | growth inhibition (GI) [46] | growth inhibition (GI) [47] | growth inhibition (GI) [48] | growth inhibition (GI) [49] | growth inhibition (GI) [50] | growth inhibition (GI) [51] | growth inhibition (GI) [52] | growth inhibition (GI) [53] | growth inhibition (GI) [54] | growth inhibition (GI) [55] | growth inhibition (GI) [56] | growth inhibition (GI) [57] | growth inhibition (GI) [58] | growth inhibition (GI) [59] | growth inhibition (GI) [60]
5 µM: IC50 [1]

COc1cc2nc(Sc3nnc(N)s3)n(Cc3ccccc3)c(=O)c2cc1OC
13.4%: inhibition of growth at 10 µM ([14]; read-out: GI)
6 µM: IC50 [1]
11.4%: inhibition of growth at 10 µM [63]
18.7%: inhibition of growth at 10 µM ([47]; A498, 48 h, read-out: GI)
8 mm: zone of inhibition at 200 µg/disc [2] | zone of inhibition at 200 µg/disc [4] | zone of inhibition at 200 µg/disc [5] | zone of inhibition at 200 µg/disc [6]
26.7%: inhibition of growth at 10 µM [62]
14 mm: zone of inhibition at 200 µg/disc [3]
21.5%: inhibition of growth at 10 µM [64]
18.5%: inhibition of growth at 10 µM [61]
